Results from ChEMBL document CHEMBL1201862, “PubChem BioAssay data set” (2004).
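Exposure lasted 48 hours, with cells grown in 96-well plates and compounds tested at five concentrations. Abbreviation: GI50, concentration required for 50% inhibition of growth.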 Activity calls are given as the source filed them. Rule as the data show it: active = GI50 up to about 1.1 µM and inactive = higher.

Legend:
Test in all cases: growth of human tumour cells (NCI), 48 h
[1] = test system: A549
[2] = test system: DU-145
[3] = test system: EKVX
[4] = test system: HOP-92
[5] = test system: IGROV-1
[6] = test system: MOLT-4
[7] = test system: Malme-3M
[8] = test system: NCI-H23
[9] = test system: OVCAR-3
[10] = test system: OVCAR-4
[11] = test system: RPMI-8226
[12] = test system: SF-539
[13] = test system: SK-MEL-28
[14] = test system: SK-MEL-5
[15] = test system: SN12C
[16] = test system: SNB-75
[17] = test system: SR
[18] = test system: T47D
[19] = test system: A498

Row | SMILES | GI50 [1] | GI50 [2] | GI50 [3] | GI50 [4] | GI50 [5] | GI50 [6] | GI50 [7] | GI50 [8] | GI50 [9] | GI50 [10] | GI50 [11] | GI50 [12] | GI50 [13] | GI50 [14] | GI50 [15] | GI50 [16] | GI50 [17] | GI50 [18] | GI50 [19]
1 | COC1CC(OC2C(C)OC(OC3C(C)OC(OC4C(C)OC(O[C@H]5CC[C@@]6(C)C(=CC[C@]7(O)[C@@H]6C[C@@H](OC(=O)/C=C/c6ccccc6)[C@@]6(C)[C@]7(O)CC[C@@]6(O)C(C)=O)C5)CC4OC)CC3OC)CC2OC)OC(C)C1O (stereo not given in full) | > 12.5 µM (inactive) | > 12.5 µM (inactive) | > 12.5 µM (inactive) | > 12.5 µM (inactive) | > 12.5 µM (inactive) | > 12.5 µM (inactive) | > 12.5 µM (inactive) | > 12.5 µM (inactive) | 11 µM (inactive) | > 12.5 µM (inactive) | 5.98 µM (inactive) | > 12.5 µM (inactive) | > 12.5 µM (inactive) | 11.4 µM (inactive) | > 12.5 µM (inactive) | > 12.5 µM (inactive) | > 12.5 µM (inactive) | > 12.5 µM (inactive) | 
2 | NC(=O)c1cnc2sc3ccccc3n2c1=O | 67.9 µM (inactive) | > 100 µM (inactive) | 21.9 µM (inactive) | 91.4 µM (inactive) | > 100 µM (inactive) | > 100 µM (inactive) | > 100 µM (inactive) |  | > 100 µM (inactive) | > 100 µM (inactive) | > 100 µM (inactive) | > 100 µM (inactive) | > 100 µM (inactive) | > 100 µM (inactive) | > 100 µM (inactive) | > 100 µM (inactive) | > 100 µM (inactive) | > 100 µM (inactive) | 
3 | C#CCNC(CSSCC(N)C(=O)O)C(=O)O (stereo not given) | > 100 µM (inactive) | > 100 µM (inactive) | > 100 µM (inactive) | 4.73 µM (inactive) | > 100 µM (inactive) | > 100 µM (inactive) | > 100 µM (inactive) | > 100 µM (inactive) | > 100 µM (inactive) | > 100 µM (inactive) | > 100 µM (inactive) | > 100 µM (inactive) | > 100 µM (inactive) | > 100 µM (inactive) |  | > 100 µM (inactive) |  | > 100 µM (inactive) | > 100 µM (inactive)
4 | N#C/C(N)=C(C#N)/N=C/N | > 100 µM (inactive) | > 100 µM (inactive) | > 100 µM (inactive) | > 100 µM (inactive) | > 100 µM (inactive) | > 100 µM (inactive) | > 100 µM (inactive) | > 100 µM (inactive) | > 100 µM (inactive) | > 100 µM (inactive) | > 100 µM (inactive) | > 100 µM (inactive) | > 100 µM (inactive) | > 100 µM (inactive) | > 100 µM (inactive) | > 100 µM (inactive) | > 100 µM (inactive) | > 100 µM (inactive) | 
5 | CCOC(=O)CC/C(C)=N\n1c(Cc2ccc(Cl)cc2)n[nH]c1=O | > 100 µM (inactive) | > 100 µM (inactive) |  |  | > 100 µM (inactive) | > 100 µM (inactive) | > 100 µM (inactive) | > 100 µM (inactive) | > 100 µM (inactive) |  | > 100 µM (inactive) | > 100 µM (inactive) | > 100 µM (inactive) | > 100 µM (inactive) | > 100 µM (inactive) | > 100 µM (inactive) | > 100 µM (inactive) | > 100 µM (inactive) | 
6 | CC(=O)O[C@H]1CCn2c3c(c(C)c21)C(=O)C(N1CC1)=C(C)C3=O | 3.19 µM (inactive) | 4.21 µM (inactive) | > 10 µM (inactive) |  | > 10 µM (inactive) | > 10 µM (inactive) | > 10 µM (inactive) | 1.68 µM (inactive) | > 10 µM (inactive) | > 10 µM (inactive) | > 10 µM (inactive) | > 10 µM (inactive) |  | 2.57 µM (inactive) | 7.43 µM (inactive) | 8.51 µM (inactive) | > 10 µM (inactive) | > 10 µM (inactive) | 
7 | COC(=O)/C=C/c1cc2c(cc1-c1c(C(=O)O)cc(OC)c(OC)c1OC)OCO2 | > 10 µM (inactive) | > 10 µM (inactive) |  | > 10 µM (inactive) | > 10 µM (inactive) | > 10 µM (inactive) | > 10 µM (inactive) | > 10 µM (inactive) | > 10 µM (inactive) | > 10 µM (inactive) | > 10 µM (inactive) | > 10 µM (inactive) | > 10 µM (inactive) | > 10 µM (inactive) | > 10 µM (inactive) | > 10 µM (inactive) | > 10 µM (inactive) | > 10 µM (inactive) | 
8 | Cc1cc(C)c2cc(N)c(Cl)nc2n1 | > 100 µM (inactive) | > 100 µM (inactive) | > 100 µM (inactive) | > 100 µM (inactive) | > 100 µM (inactive) |  | > 100 µM (inactive) | > 100 µM (inactive) |  |  | > 100 µM (inactive) | > 100 µM (inactive) |  | > 100 µM (inactive) | > 100 µM (inactive) | > 100 µM (inactive) |  | > 100 µM (inactive) | 
9 | CC(C)(C)[Si](C)(C)OCCCCC1CC2(S(=O)(=O)C3=CC=C=C=C3)ON1CC2S(=O)(=O)c1ccccc1 (stereo not given) | > 100 µM (inactive) | > 100 µM (inactive) | > 100 µM (inactive) | > 100 µM (inactive) | > 100 µM (inactive) | > 100 µM (inactive) |  | > 100 µM (inactive) | > 100 µM (inactive) | > 100 µM (inactive) | > 100 µM (inactive) | > 100 µM (inactive) | > 100 µM (inactive) | > 100 µM (inactive) | > 100 µM (inactive) | > 100 µM (inactive) |  | > 100 µM (inactive) | > 100 µM (inactive)
10 | O=C1N/C(=N\C2CCCCC2)C2(CCN(CCCC3(c4ccc(F)cc4)OCCO3)CC2)N1c1ccccc1 | 21.4 µM (inactive) | 17 µM (inactive) | 16.8 µM (inactive) |  |  | 15.1 µM (inactive) | 16.7 µM (inactive) | 17.9 µM (inactive) | 11.8 µM (inactive) | 18.5 µM (inactive) | 23 µM (inactive) | 17 µM (inactive) | 18.6 µM (inactive) | 15 µM (inactive) | 20.4 µM (inactive) | 14.3 µM (inactive) | 13.9 µM (inactive) | 17 µM (inactive) | 
11 | CC(C)CCCC(=O)CCCCCCC(=O)CCN(O)C(=O)C(N)CO (stereo not given) |  | 18.3 µM (inactive) | 10.6 µM (inactive) |  | 13.5 µM (inactive) | 41.7 µM (inactive) | 13.7 µM (inactive) | 15.1 µM (inactive) | 17.3 µM (inactive) |  | 21.7 µM (inactive) | 16 µM (inactive) | 19.1 µM (inactive) | 17.5 µM (inactive) | 16.9 µM (inactive) | 10.8 µM (inactive) |  | 13.8 µM (inactive) | 16.3 µM (inactive)
12 | NC(=O)[N+](=CC(=S)Nc1ccccc1Cl)C(N)=O | > 100 µM (inactive) | > 100 µM (inactive) | > 100 µM (inactive) | > 100 µM (inactive) | > 100 µM (inactive) | > 100 µM (inactive) |  | > 100 µM (inactive) | > 100 µM (inactive) | > 100 µM (inactive) | > 100 µM (inactive) | > 100 µM (inactive) |  | > 100 µM (inactive) | > 100 µM (inactive) |  | 28.7 µM (inactive) | > 100 µM (inactive) | 
13 | Cc1cn2c(/C=N/NC(=N)N)c(-c3ccc([N+](=O)[O-])cc3)nc2s1 | 1.66 µM (inactive) | 2.49 µM (inactive) | 0.338 µM (active) | 0.641 µM (active) |  |  | 1.39 µM (inactive) | 1.59 µM (inactive) | 1.65 µM (inactive) | 0.169 µM (active) | 1.42 µM (inactive) | 1.68 µM (inactive) | 1.57 µM (inactive) | 1.36 µM (inactive) | 1.46 µM (inactive) | 0.509 µM (active) |  | 0.566 µM (active) | 1.52 µM (inactive)
14 | Oc1ccc(-c2nc3ccc(Cl)cc3s2)cc1 | 20.8 µM (inactive) | 17.3 µM (inactive) | 16.2 µM (inactive) |  | 16.5 µM (inactive) | 26.7 µM (inactive) | 19.3 µM (inactive) | 18.3 µM (inactive) | 23.5 µM (inactive) |  | 20.1 µM (inactive) | 16.2 µM (inactive) |  | 18.2 µM (inactive) | 19.4 µM (inactive) |  | 23.7 µM (inactive) |  | 20 µM (inactive)
15 | c1ccc(N2N=C3N(c4ccccc4)C2N3c2ccccc2)cc1 | 47.3 µM (inactive) | 56.5 µM (inactive) | > 100 µM (inactive) | 14.1 µM (inactive) | 31.4 µM (inactive) | 16.5 µM (inactive) | 17.5 µM (inactive) | 37.9 µM (inactive) | 36.6 µM (inactive) | 35.6 µM (inactive) | 15.7 µM (inactive) | 22.3 µM (inactive) | 19.1 µM (inactive) | 21.6 µM (inactive) | 48 µM (inactive) | 17.8 µM (inactive) |  | 52.4 µM (inactive) | 33.1 µM (inactive)
16 | CCCCn1cnc2c(c(CC#N)nn2-c2ccccc2)c1=N | 83.8 µM (inactive) | 76 µM (inactive) | 48.8 µM (inactive) | 52.2 µM (inactive) | 68.9 µM (inactive) | 33.1 µM (inactive) | 63.5 µM (inactive) | 51.9 µM (inactive) | 63.7 µM (inactive) | 29.8 µM (inactive) | 27.4 µM (inactive) |  | 44.1 µM (inactive) | 20.9 µM (inactive) | 70.8 µM (inactive) | 45.6 µM (inactive) |  | 35.7 µM (inactive) | 24.5 µM (inactive)
17 | C/C=C/C(O)P1(=O)N(Cc2ccccc2)[C@@H]2CCCC[C@H]2N1Cc1ccccc1 (stereo not given in full) | > 25 µM (inactive) | > 25 µM (inactive) | > 25 µM (inactive) |  | > 25 µM (inactive) | 19.9 µM (inactive) | > 25 µM (inactive) | > 25 µM (inactive) | > 25 µM (inactive) | > 25 µM (inactive) |  | > 25 µM (inactive) | > 25 µM (inactive) | > 25 µM (inactive) | > 25 µM (inactive) | > 25 µM (inactive) | > 25 µM (inactive) | > 25 µM (inactive) | 
